Reference: patent US9682980B2, “Positive allosteric modulators of mGluR2” (BRISTOL-MYERS SQUIBB COMPANY, priority 2012, dated 2017)

Assays:
human mGluR2 = human mGluR2 (Homo sapiens (Human), UniProt Q14416); assay: MGluR2 cAMP assay; type: cell-based; settings: HEK293 cells clonally expressing human mGluR2, 1 μM forskolin, 1 μM LY-341495
Summary of the method: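 HEK293 cells expressing human mGluR2, glutamate-starved overnight, stimulated 30 min in HBSS pH 7.0 with 1 mM IBMX, 1 μM forskolin and 1 μM LY-341495. cAMP measured by HTRF (665/618 nm ratio) against a cAMP standard curve; EC50 from 4-parameter logistic fit of % inhibition.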

[1] = tested on: rats treated with phencyclidine (PCP); settings: cited from earlier work
GAD patients = settings: cited from earlier work
schizophrenia = settings: cited from earlier work

human mGluR2, sequence (Q14416 19-872): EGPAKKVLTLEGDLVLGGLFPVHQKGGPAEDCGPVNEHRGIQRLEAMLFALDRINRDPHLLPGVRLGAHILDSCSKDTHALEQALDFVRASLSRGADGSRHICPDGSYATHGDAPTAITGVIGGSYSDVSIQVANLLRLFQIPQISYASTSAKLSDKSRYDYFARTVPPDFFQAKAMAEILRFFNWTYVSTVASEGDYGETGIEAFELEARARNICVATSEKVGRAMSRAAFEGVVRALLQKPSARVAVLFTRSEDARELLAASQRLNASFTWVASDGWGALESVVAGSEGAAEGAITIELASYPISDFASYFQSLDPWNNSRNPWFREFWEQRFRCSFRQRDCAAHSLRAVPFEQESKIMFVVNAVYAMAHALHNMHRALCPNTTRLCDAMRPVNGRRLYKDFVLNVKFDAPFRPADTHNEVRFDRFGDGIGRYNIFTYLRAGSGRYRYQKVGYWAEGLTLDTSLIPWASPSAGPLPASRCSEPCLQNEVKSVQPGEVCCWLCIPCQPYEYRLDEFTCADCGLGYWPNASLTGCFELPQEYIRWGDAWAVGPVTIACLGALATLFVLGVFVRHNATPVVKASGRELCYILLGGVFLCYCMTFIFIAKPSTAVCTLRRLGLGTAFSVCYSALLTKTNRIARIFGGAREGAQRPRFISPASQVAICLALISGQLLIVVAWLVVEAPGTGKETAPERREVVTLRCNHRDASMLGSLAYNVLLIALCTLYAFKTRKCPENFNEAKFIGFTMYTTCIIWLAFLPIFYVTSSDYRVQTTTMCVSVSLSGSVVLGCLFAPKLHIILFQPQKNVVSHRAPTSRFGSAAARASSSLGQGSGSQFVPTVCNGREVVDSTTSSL

Structure (SMILES)	EC50 (human mGluR2) [nM]	also measured
N#Cc1ccccc1C1CCN(c2cnn3c(CC4CC4)nnc3c2Cl)CC1 [Example 72, 2-(1-(8-Chloro-3-(cyclopropylmethyl)-[1,2,4]triazolo[4,3-b]pyridazin-7-yl)piperidin-4-yl)benzonitrile]	15	
N#Cc1ccccc1C1CCN(c2cnn3c(CC(F)(F)F)nnc3c2Cl)CC1 [Example 73, 2-(1-(8-chloro-3-(2,2,2-trifluoroethyl)-[1,2,4]triazolo[4,3-b]pyridazin-7-yl)piperidin-4-yl)benzonitrile]	18	
Fc1ccc(C2CCN(c3cnn4c(CC5CC5)nnc4c3Cl)CC2)c(F)c1 [Example 74, 8-Chloro-3-(cyclopropylmethyl)-7-(4-(2,4-difluorophenyl)piperidin-1-yl)-[1,2,4]triazolo[4,3-b]pyridazine]	14	
Fc1ccc(C2CCN(c3cnn4c(CC(F)(F)F)nnc4c3Cl)CC2)c(F)c1 [Example 75, 8-Chloro-7-(4-(2,4-difluorophenyl)piperidin-1-yl)-3-(2,2,2-trifluoroethyl)-[1,2,4]triazolo[4,3-b]pyridazine]	16	
FC(F)(F)c1cccnc1C1CCN(c2cnn3c(CC4CC4)nnc3c2Cl)CC1 [Example 76, 8-Chloro-3-(cyclopropylmethyl)-7-(4-(3-(trifluoromethyl)pyridin-2-yl)piperidin-1-yl)-[1,2,4]triazolo[4,3-b]pyridazine]	34	
N#Cc1ccccc1C1CCN(c2cnn3c(CC4CC4)nnc3c2C(F)(F)F)CC1 [Example 77, 2-(1-(3-(Cyclopropylmethyl)-8-(trifluoromethyl)-[1,2,4]triazolo[4,3-b]pyridazin-7-yl)piperidin-4-yl)benzonitrile]	4	
N#Cc1ccccc1C1CCN(c2cnn3c(CC(F)(F)F)nnc3c2C(F)(F)F)CC1 [Example 78, 2-(1-(3-(2,2,2-Trifluoroethyl)-8-(trifluoromethyl)-[1,2,4]triazolo[4,3-b]pyridazin-7-yl)piperidin-4-yl)benzonitrile]	7	
Clc1c(N2CCC(c3ccccn3)CC2)cnn2c(CC3CC3)nnc12 [Example 79, 8-Chloro-3-(cyclopropylmethyl)-7-(4-(pyridin-2-yl)piperidin-1-yl)-[1,2,4]triazolo[4,3-b]pyridazine]	382	
COc1c(F)ccc(F)c1C1CCN(c2cnn3c(CC4CC4)nnc3c2C(F)(F)F)CC1 [Example 80, 3-(Cyclopropylmethyl)-7-(4-(3,6-difluoro-2-methoxyphenyl)piperidin-1-yl)-8-(trifluoromethyl)-[1,2,4]triazolo[4,3-b]pyridazine]	0.2	
COc1c(F)ccc(F)c1C1CCN(c2cnn3c(CC(F)(F)F)nnc3c2C(F)(F)F)CC1 [Example 81, 7-(4-(3,6-Difluoro-2-methoxyphenyl)piperidin-1-yl)-3-(2,2,2-trifluoroethyl)-8-(trifluoromethyl)-[1,2,4]triazolo[4,3-b]pyridazine]	0.4	
Clc1c(N2CCC(c3cccnc3)CC2)cnn2c(CC3CC3)nnc12 [Example 82, 8-Chloro-3-(cyclopropylmethyl)-7-(4-(pyridin-3-yl)piperidin-1-yl)-[1,2,4]triazolo[4,3-b]pyridazine]	809	
COc1cccnc1C1CCN(c2cnn3c(CC(F)(F)F)nnc3c2Cl)CC1 [Example 83, 8-Chloro-7-(4-(3-methoxypyridin-2-yl)piperidin-1-yl)-3-(2,2,2-trifluoroethyl)-[1,2,4]triazolo[4,3-b]pyridazine]	42	
Fc1ccccc1C1CCN(c2cnn3c(CC4CC4)nnc3c2C(F)(F)F)CC1 [Example 84, 3-(Cyclopropylmethyl)-7-(4-(2-fluorophenyl)piperidin-1-yl)-8-(trifluoromethyl)-[1,2,4]triazolo[4,3-b]pyridazine]	4	
N[C@@]1(C(=O)O)CC[C@H]2[C@H](C(=O)O)[C@H]21 [LY-354740]		brain glutamate levels [1]: lowered brain glutamate levels; behavioral effects of PCP ([1]; hyper-locomotion and working memory deficits): reversed the behavioral effects of PCP
C[C@H](N)C(=O)N[C@@]1(C(=O)O)CC[C@H]2[C@H](C(=O)O)[C@H]21 [LY-544344]		therapeutic effects for anxiety (GAD patients): therapeutic effects
CSCC[C@H](N)C(=O)N[C@@]1(C(=O)O)CS(=O)(=O)[C@H]2[C@H](C(=O)O)[C@H]21 [LY-2140023]		positive and negative symptoms in schizophrenia (schizophrenia): relief of positive and negative symptoms
